| Structure (SMILES) | melting point [°C] |
| --- | --- |
| Clc1ccc2c(Cl)ccnc2c1 | 93 |
| CN(C)CC(O)Cn1c2ccc(Br)cc2c2cc(Br)ccc21 (centres undefined) | 153 to 154 |
| CCn1c(C)nc([N+](=O)[O-])c1I | 210 to 212 |
| CCOC(=O)C1=C(NC(=O)c2ccco2)Oc2c(c(=O)oc3ccccc23)C1c1ccc(Br)cc1 (centres undefined) | 140 |
| CCOc1ccc(F)cc1 | -8.5 |
| CC(=O)C1CCC2C3CCC4=CC(=O)CCC4(C)C3CCC12C (centres undefined) | 128 to 132 |
| Cc1c(C)c(C)c(CC#N)c(C)c1C | 112 |
| COc1ccc(C2(C)C=C(C)N=N2)cc1 (centres undefined) | 70 |
| CCOC(=O)c1c(C)oc(NC(=O)Nc2ccccc2)c1C(=O)OCC | 110 to 112 |
| Cc1cc[nH]c1 | -48.4 |
| NNC(=O)c1cccc(OCc2ccccc2)c1 | 113 to 115 |
| CC(C)=C1OC(=O)C1(C)C | -18 |
| CN(C)c1ccc(C(O)c2ccc(N(C)C)cc2)cc1 | 101 |
| CC12C=CC(=O)C=C1CCC1C2C(O)CC2(C)C1CCC2(O)C(=O)COC(=O)CCCc1ccc(N(CCCl)CCCl)cc1 (centres undefined) | 164 |
| CCCCCCCCc1ccc(O)cc1 | 45 |
| Nc1ccc2scnc2c1 | 55 to 59 |
| N=C(N)NS(=O)(=O)c1cc(C(F)(F)F)cc(C(F)(F)F)c1 | 194 to 197 |
| O=C(ON1C(=O)CCC1=O)ON1C(=O)CCC1=O | 190 |
| CCCCNC(=O)NS(=O)(=O)c1ccccc1 | 131 |
| COc1ccc2c(=O)c(=O)c2c1 | 102 |
| N#Cc1ncc(Cl)cc1Cl | 101 |
| COc1ccc(C=O)c(Cl)c1OC | 71 to 72 |
| CCCCCCCC(=O)CC | 2.5 |
| O=S1(=O)c2cccc3cccc(c23)N1CCCCCl | 38 to 40 |
| C/C(OCCc1ccccc1)=C(/C#N)c1ccccc1 | 118 |
| O=C1OC(=O)C23Cc4ccccc4CC12Cc1cc2c(cc1C3)CC2 (centres undefined) | 248 to 252 |

| Structure (SMILES) | melting point [°C] |
| --- | --- |
| Nc1ccc(Cc2ccccc2)cc1 | 37 |
| CCc1ccccc1NCN1C(=O)c2ccccc2C1=O | 104 |
| CC(=O)c1cc(Cl)c(C)cc1O | 70 to 73 |
| CCOC(=O)C=Cc1cc(C=CC(=O)OCC)c([N+](=O)[O-])cc1[N+](=O)[O-] | 116 |
| CC(C)(C)OC(=O)NC(Cc1cccnc1)C(=O)O (centres undefined) | 137 |
| CC1(c2ccccc2)CC(C(=NOC(=O)Cc2ccccc2)c2cc3ccccc3o2)C1 (centres undefined) | 144 to 145 |
| O=C1OC(c2ccccc2)=N/C1=C/c1ccc(-c2ccccc2[N+](=O)[O-])o1 | 210 |
| CC(=O)C1CCC2C3CC=C4CC(O)CCC4(C)C3CCC12C (centres undefined) | 193 |
| Cc1cc(C)c(NC(=O)C(F)(F)C(F)(F)C(F)(F)C(F)(F)C(F)(F)C(F)(F)C(F)(F)C(F)(F)F)c(C)c1 | 63 |
| CCOC(=O)c1sc(-c2ccccc2)nc1C | 36 to 39 |
| NNC(=O)Cc1ccccc1 | 115 to 117 |
| OCc1cccc(-c2ccccc2)c1 | 55 |
| COc1cc2c(cc1OC)C13CCN4CC5=CCOC6CC(=O)N2C1C6C5CC43 (centres undefined) | 178 |
| NC(Cc1ccc(O)c(I)c1)C(=O)O (centres undefined) | 205 |
| CC(C)(C)OC(=O)N1CCCC(=O)C1 | 38 |
| CCOC(=O)c1cc2cc(C=O)c(N)cc2[nH]c1=O | 154 to 157 |
| COc1cc(C(=O)O)ccc1F | 207 |
| O=C1c2ccccc2C(=O)N1O | 233 to 235 |
| COc1ccc(C(=O)c2cccc(C)c2)cc1C | 62.3 |
| O=C=Nc1c(F)cccc1F | 24 |
| O=C(O)C(O)c1cc(F)cc(F)c1 (centres undefined) | 136 |
| FC=C(F)F | -78 |
| Cn1c(=O)c(C2=NNC(=O)C2=NNc2ccncc2)c(O)c2ccccc21 | 294 |
| COC(=O)c1sc(SC)c(S(=O)(=O)C(C)C)c1Cl | 141 to 144 |
| CSC(SC)SC | 16 |
| CCCc1c(C)nc(NC(=O)NS(=O)(=O)c2cccs2)nc1Cl | 171 to 173 |

| Structure (SMILES) | melting point [°C] |
| --- | --- |
| CC(CSc1ccc(Cl)cc1)C(=O)O (centres undefined) | 63 to 65 |
| NC(=O)c1cc(F)cc(F)c1 | 156 |
| O=C(CBr)c1ccc(-c2ccccc2)cc1 | 125 |
| O=C(CBr)c1cccs1 | 109 to 111 |
| CCc1cc(Cc2cc(CC)c(N)c(CC)c2)cc(CC)c1N | 88 to 91 |
| CCOC(=O)C=C1SC(N2CCCCC2)C(=O)N1C (centres undefined) | 140 |
| O=[N+]([O-])c1cccc(Oc2ccccn2)c1 | 93 to 95 |
| Nc1nc(O)nc2[nH]ncc12 | 320 |
| CCOC(=O)c1cc(C(=O)CBr)on1 | 71 to 73 |
| Clc1ccc(Br)c(Cl)n1 | 70 |
| O=[N+]([O-])c1ccc(S(=O)(=O)N2CCOCC2)cc1 | 173 to 175 |
| CC(C)(C)OC(=O)C1(S(=O)(=O)c2ccc(Cl)cc2)CC1 | 110 |
| Nc1ccccc1/C=C/c1nc2ccccc2[nH]1 | 213 |
| FC(F)(F)C(F)(F)C(F)(F)C(F)(F)I | -68 |
| O=C(O)c1snnc1-c1ccccc1 | 144 to 145 |
| O=C(O)c1cc(F)cc(C(F)(F)F)c1 | 104 to 108 |
| O=[N+]([O-])c1ccc(-c2nnc3n2CN(c2ccccc2)CS3)cc1 | > 320 |
| CC(=O)c1c(O)c(C)c(O)c2c1OC1=CC(=O)C(C(C)=O)C(=O)C12C (centres undefined) | 204 |
| O=[N+]([O-])c1ccc2[nH]ncc2c1 | 210 |
| CCN(CC)CCSC(=O)N(c1ccccc1)c1ccccc1 | 48 |
| CCCC(O)C(=O)O (centres undefined) | 34 |
| O=CC(O)CO (centres undefined) | 145 |
| C=C1CCOC2(C(O)C(C)(O)CO)NC(=O)C1(O)NC2=O (centres undefined) | 188 |
| CC(C)C[C@H](NC(=O)CN)C(=O)O | 233 to 235 |
| Cc1ccccc1OCC(=O)O | 155 to 157 |
| CC(C)(C)c1ccccc1N | -60 |

| Structure (SMILES) | melting point [°C] |
| --- | --- |
| O=C(c1ccc(O)cc1)c1ccc(Cl)cc1 | 180 |
| CCNc1cc2oc(=O)cc(C(F)(F)F)c2cc1C | 184 |
| N#Cc1c(F)cc(F)cc1F | 57 to 61 |
| C#CC(O)(c1ccccc1)c1ccccc1 | 47 to 48 |
| COc1cc(C=CC(=O)O)cc(OC)c1 | 173 to 176 |
| c1ccc2c(c1)ccc1[nH]c3ccccc3c12 | 134 |
| CC(C)C(C(=O)O)C(=O)O | 90 to 93 |
| CC(=O)OC1CC2C(C)C(=O)C3(C(O)CC4C5(C)CCCC4(C(O)OC5)C13)C2O (centres undefined) | 220 |
| Cc1ccc(C)c(Cl)c1 | 1.6 |
| CC(=O)C(C#N)(Cc1ccc([N+](=O)[O-])cc1)c1ccccc1 (centres undefined) | 82 |
| Cc1ccc(-c2onc(C(=O)c3cccs3)c2S(=O)(=O)c2ccccc2)cc1 | 128 |
| COC(=O)c1ccc(C(=O)OC)c(I)c1 | 81 to 82 |
| Cc1cc(=S)cc(C)o1 | 142 |
| COc1ccc2c(c1)C(=O)C(=O)N2 | 200 |
| CC1(C)C(C=NO)=[N+]([O-])C(C)(C)N1O | 157 to 159 |
| c1ccc(-c2cc(N3CCCC3)cc(N3CCCC3)c2)cc1 | 174 |
| CC1C(c2ccc(Cl)cc2)SC(=O)N1C(=O)NC1CCCCC1 (centres undefined) | 108 |
| CCOC(=O)N1CCN(C(=O)OCC)CC1 | 47 |
| CN1CCN(C(=O)CC(c2ccc(Cl)cc2)(c2ccc(Cl)cc2)c2ccc(Cl)cc2)CC1 | 214 |
| CCCCc1nc(CO)c[nH]1 | 94 to 97 |
| CCN(C)CC | -196 |
| FC(F)(F)c1nn(CN2CCN(Cn3nc(C(F)(F)F)n(N=Cc4ccc5c(c4)OCO5)c3=S)CC2)c(=S)n1N=Cc1ccc2c(c1)OCO2 | 156 |
| O=C(NC(Cc1ccccn1)C(=O)O)OCC1c2ccccc2-c2ccccc21 (centres undefined) | 154 |
| O=C=Nc1cccs1 | 108 to 110 |
| N#CC1(c2ccc(Cl)cc2)CC1 | 52 to 56 |
| CN(C)c1ccc(C2Nn3c(nnc3-c3ccc([N+](=O)[O-])cc3)S2)cc1 (centres undefined) | 176 |

| Structure (SMILES) | melting point [°C] |
| --- | --- |
| Cc1cc(C(=O)O)ccc1Cl | 216 to 218 |
| COc1cc(CC(=O)O)ccc1Br | 104 |
| NC(=O)NN=C(O)Cc1ccccc1 | 168 |
| CC(C)(NO)C(=NO)c1ccccc1 | 153 to 154 |
| O=C(O)c1cncc(Br)c1 | 184 |
| CSC(=NS(=O)(=O)c1ccccc1)SC | 105 to 107 |
| CC(=O)NCO | 55 to 56 |
| Cc1ccc2c(c1)CC2=O | 53 |
| ClC(Cl)N(C(Cl)Cl)C(Cl)Cl | 170 to 173 |
| NC(=O)c1cc(F)ccc1F | 114 to 116 |
| NC(=O)Nc1ccc(C2=NNC(=O)CC2)cc1 | 215 to 218 |
| NC(=O)/C(=N\Nc1cccc(C(F)(F)F)c1)c1nc2ccccc2s1 | 190 |
| Cc1nc(CO)c(C)o1 | 73 |
| C=CCOC(=O)OCCOCCOC(=O)OCC=C | -4 |
| Cc1nn(C)c(Cl)c1S(=O)(=O)Cl | 35 |
| N#Cc1ccccc1N1CCCCC1 | 45 to 48 |
| O=C(O)COCCNC(=O)C12CC3CC(CC(C3)C1)C2 | 120 to 124 |
| O=C(O)CN(CC(=O)O)c1ccccc1 | 156 to 160 |
| N#CC1(c2c(F)cccc2Cl)CCCCC1 | 76 to 81 |
| Nc1nc(SCc2ccc([N+](=O)[O-])cc2)c2ncn(C3OC(CO)C(O)C3O)c2n1 (centres undefined) | 203 to 205 |
| Oc1ccccc1C1CCCC1 | 34.5 |
| CCCCCCCCOCCCCCCCC | -7.6 |
| C#CCCCCCC#C | -21 |
| CC(C)(C)OC(=O)N1CCC(Oc2ccccc2N)CC1 | 71 to 78 |
| Cc1nc2ccccc2c(C(=O)O)c1N | 204 to 205 |

From a melting point compilation (Tetko et al.)
